Assay results: patent US20260224688A1, “HELPER LIPIDS FOR NUCLEIC ACID DELIVERY” (SANOFI PASTEUR INC., priority 2023, published 2026)

What was measured:
[1] = Dynamic light scattering of lipid nanoparticles (size, PDI); format: physicochemical
Description: (§1) Lipid nanoparticle formulations 3 were prepared by Process A at a molar ratio of 40:1.5:30:28.5 (Cationic Lipid: DMG-PEG2000: Cholesterol: Helper Lipid) with the cationic lipids and helper lipids disclosed in the tables below. The Polydispersity Index (Pdl) of lipid nanoparticles can be determined by diluting the formulation in 10% trehalose at about 0.1 mg/ml mRNA concentration and then measuring the size on Malvern zetasizer. The lipid nanoparticle size can be obtained with Malvern Zetasizer Nano-ZS.
Dynamic light scattering (DLS) measurements were performed using a Malvern Instruments Zetasizer with a backscattering detector angle of 173° and a 4-mW, 633-nm He—Ne laser (Worcestershire, UK). The samples were analyzed by diluting in 10% Trehalose and measuring the size and Poly dispersity Index (PDI) in an optical grade polystyrene cuvette.

[2] = mRNA encapsulation efficiency of lipid nanoparticles; format: physicochemical; settings: for Encapsulation efficiency (EE): LNP with cationic lipid CL-A
Source text: In embodiments, the lipid nanoparticle encapsulates a nucleic acid, optionally an mRNA encoding a peptide or protein. In embodiments, the lipid nanoparticle encapsulates an mRNA encoding a peptide or protein, optionally for use in a vaccine. In embodiments, the peptide is an antigen. As used herein, the phrase “encapsulation percentage” refers to the fraction of therapeutic agent (e.g. mRNA) that is effectively encapsulated within a liposomal-based vehicle (e.g. a lipid nanoparticle) relative to the initial fraction of therapeutic agent present in the lipid phase. In embodiments, the lipid nanoparticles have an encapsulation percentage for mRNA of at least 50%. In embodiments, the lipid nanoparticles have an encapsulation percentage for mRNA of at least 55%. In embodiments, the lipid nanoparticles have an encapsulation percentage for mRNA of at least 60%. In embodiments, the lipid nanoparticles have an encapsulation percentage for mRNA of at least 65%. In embodiments, the lipid nanoparticles have an encapsulation percentage for mRNA of at least 70%. In embodiments, the lipid nanoparticles have an encapsulation percentage for mRNA of at least 75%. In embodiments, the lipid nanoparticles have an encapsulation percentage for mRNA of at least 80%. In embodiments, the lipid nanoparticles have an encapsulation percentage for mRNA of at least 85%. In embodiments, the lipid nanoparticles have an encapsulation percentage for mRNA of at least 90%. In embodiments, the lipid nanoparticles have an encapsulation percentage for mRNA of at least 95%. In embodiments, the encapsulation percentage is calculated by performing the Ribogreen assay (Invitrogen) with and without the presence of 0.1% Triton-X 100.
The lipid nanoparticles in the examples of the present invention were formulated using Process A of WO 2018/089801 (see, e.g., Example 1 and FIG. 1 of WO 2018/089801). Process A (“A”) relates to a conventional method of encapsulating mRNA by mixing mRNA with a mixture of lipids, without first pre-forming the lipids into lipid nanoparticles. In an exemplary process, an ethanolic solution of a mixture of lipids (cationic lipid, phosphatidylethanolamine, cholesterol, and polyethylene glycol-lipid) at a fixed lipid to mRNA ratio were combined with an aqueous buffered solution of target mRNA at an acidic pH under controlled conditions to yield a suspension of uniform LNPs. After ultrafiltration and diafiltration into a suitable diluent system, the resulting nanoparticle suspensions were diluted to final concentration, filtered, and stored frozen at −80° C. until use.
as §1

[3] = system: hEPO; experiment: IM EPO expression of LNPs containing new helper lipids (hEPO in serum by ELISA); format: in vivo, female BALB/cJ mice; settings: single IM injection; for 24-h EPO: serum 24 hours post injection
Description: Lipid nanoparticles were formulated containing the four lipid components shown below at a ratio of 40:30:28.5:1.5, complexed with a hEPO messenger RNA. • Cationic lipid, 40 mol % • Phospholipid (PEA) helper lipid, 30 mol % • Cholesterol, 28.5 mol % • DMG-PEG-2K (1,2-dimyristoyl-rac-glycero-3-methoxypolyethyleneglycol), 1.5 mol % The cationic lipid component of each formulation was selected from the compounds in the table below: […]
EPO expression studies were conducted with female BALB/cJ mice 6-8 weeks of age. Mice were dosed with […] EPO mRNA in 30 μL of LNPs by a single intramuscular (IM) injection into the gastrocnemius leg muscle. Blood samples were taken 6 and 24 hours post injection and hEPO levels were measured in the blood serum of the mice using an ELISA assay according to the manufacture's protocol. WO2022/099003 A1 also describes an in vivo assay for intramuscular administration (e.g. on page 46, paragraph [00206]).

[4] = system: hEPO; experiment: IV EPO expression of LNPs (tail vein injection); format: in vivo, female BALB/cJ mice; settings: cationic lipid CL-0137, helper lipid 30 mol %; 0.017 μg EPO mRNA tail vein; 6 hours; DOPE = 1
Description: Lipid nanoparticles were formulated containing the four lipid components shown below at a ratio of 40:30:28.5:1.5, complexed with a hEPO messenger RNA. • Cationic lipid CL-0137, 40 mol % • Helper lipid, 30 mol % • Cholesterol, 28.5 mol % • DMG-PEG-2K (1,2-dimyristoyl-rac-glycero-3-methoxypolyethyleneglycol), 1.5 mol %
EPO expression studies were conducted with female BALB/cJ mice 6-8 weeks of age. Mice were dosed with 0.017 μg EPO mRNA LNPs in a volume of 5 ul by a single tail vein injection. Blood samples were taken 6 hours post injection and hEPO levels were measured in the blood serum of the mice using an ELISA assay according to the manufacture's protocol.

[5] = LNP with cationic lipid CL-A, hEPO mRNA, 40:30:28.5:1.5
[6] = CL-A LNP, 0.1 μg EPO mRNA in 30 μL, serum 6 hours post injection
[7] = CL-B LNP, serum 6 hours post injection

SMILES | Polydispersity Index (PDI) ([1]; LNP with cationic lipid CL-A) | Size [1, 5] | PDI ([1]; LNP with cationic lipid CL-B) | Size ([1]; LNP with cationic lipid CL-B) | PDI ([1]; LNP with cationic lipid CL-C) | Size ([1]; LNP with cationic lipid CL-C) | PDI ([1]; LNP with cationic lipid CL-D) | Size ([1]; LNP with cationic lipid CL-D) | Encapsulation efficiency (EE) [2] | EE ([2]; LNP with cationic lipid CL-B) | EE ([2]; LNP with cationic lipid CL-C) | EE ([2]; LNP with cationic lipid CL-D) | 6-h EPO [3, 6] | 24-h EPO ([3]; CL-A LNP) | 6-h EPO [3, 7] | 24-h EPO ([3]; CL-B LNP) | 6-h EPO ([3]; CL-C LNP) | 6-h EPO ([3]; CL-C LNP, (6-h)) | Normalized Mean IV EPO expression [4] | further results
CCCCCCCCOC(=O)CCCCCCCC(=O)OC(COC(=O)CCCCCCC(=O)OC(CCCCCCCC)CCCCCCCC)COP(=O)(O)OCCN(C)C (stereo not drawn) [Compound 11, 1-(1-(((2-(Dimethylamino)ethoxy)(hydroxy)phosphoryl)oxy)-3-((8-(heptadecan-9-yloxy)-8-oxooctanoyl)oxy)propan-2-yl) 9-octyl nonanedioate] | 0.068 | 173 nm | 0.066 | 102.1 nm | 0.119 | 85.5 nm | 0.121 | 96.6 nm | 94% | 88% | 86% | 93% | 19.251 ng/mL | 11.25 ng/mL | 5.2 ng/mL | 4.8 ng/mL | 7.4 ng/mL | 8.7 ng/mL | 1.17 | –
CCCCCCCCC(CCCCCCCC)OC(=O)CCCCCCC(=O)OCC(COP(=O)(O)OCCN(C)C)OC(=O)CCCCCCC(=O)OC(CCCCCCCC)CCCCCCCC (stereo not drawn) [Compound 12, O′^1,O^1-(3-(((2-(Dimethylamino)ethoxy)(hydroxy)phosphoryl)-oxy)propane-1,2-diyl) 8-di(heptadecan-9-yl) di(octanedioate)] | 0.050 | 160 nm | 0.132 | 109.6 nm | 0.072 | 110.1 nm | 0.094 | 113.4 nm | 93% | 93% | 90% | 92% | 28.9209 ng/mL | 19.526 ng/mL | 39.6 ng/mL | 24 ng/mL | 26.2 ng/mL | 38.4 ng/mL | 2.23 | PDI ([1]; LNP with cationic lipid CL-E): 0.072; Size ([1]; LNP with cationic lipid CL-E): 112.6 nm; EE ([2]; LNP with cationic lipid CL-E): 91%
CCCCCCCCC(CCCCCCCC)OC(=O)CCCCCCC(=O)OC[C@@H](COP(=O)(O)OCCN(C)C)OC(=O)CCCCCCC(=O)OC(CCCCCCCC)CCCCCCCC [Compound 13] | 0.048 | 166 nm | 0.127 | 141.9 nm | 0.112 | 98.0 nm | – | – | 94% | 96% | 93% | – | 8.348 ng/mL | – | 53.8 ng/mL | – | – | 64.4 ng/mL | 1.47 | –
CCCCCCCCC(CCCCCCCC)OC(=O)CCCCCCC(=O)OC[C@H](COP(=O)(O)OCCN(C)C)OC(=O)CCCCCCC(=O)OC(CCCCCCCC)CCCCCCCC [Compound 14] | 0.068 | 148 nm | 0.067 | 137.0 nm | 0.141 | 101.4 nm | – | – | 96% | 92% | 91% | – | 0 ng/mL | – | 35.4 ng/mL | – | – | 34.6 ng/mL | 0.95 | –
CCCCCCCCC(CCCCCCCC)OC(=O)CCCCCC(=O)OCC(COP(=O)(O)OCCN(C)C)OC(=O)CCCCCC(=O)OC(CCCCCCCC)CCCCCCCC (stereo not drawn) [Compound 15, O′^1,O^1-(3-(((2-(Dimethylamino)ethoxy)(hydroxy)phosphoryl)oxy)propane-1,2-diyl) 7-di(heptadecan-9-yl) di(heptanedioate)] | 0.083 | 138 nm | 0.087 | 110.7 nm | 0.091 | 108.0 nm | – | – | 95% | 94% | 91% | – | 25.3 ng/mL | – | 30 ng/mL | – | – | 15.2 ng/mL | 2.24 | –
CCCCCCCCC(CCCCCCCC)OC(=O)CCCCCCCC(=O)OCC(COP(=O)(O)OCCN(C)C)OC(=O)CCCCCCCC(=O)OC(CCCCCCCC)CCCCCCCC (stereo not drawn) [Compound 16, O′^1,O^1-(3-(((2-(Dimethylamino)ethoxy)(hydroxy)phosphoryl)oxy)propane-1,2-diyl) 9-di(heptadecan-9-yl) di(nonanedioate)] | 0.052 | 128 nm | 0.069 | 108.1 nm | 0.077 | 102.7 nm | – | – | 95% | 94% | 91% | – | 17.4 ng/mL | – | 32.1 ng/mL | – | – | 9.7 ng/mL | 1.59 | –
